Test results from patent US20150203807A1, “INACTIVATION OF A […] USING A FATTY ACID” (NOVOZYMES A/S, priority 2012, published 2015).

Test system: Trichoderma reesei microbial host cells
Assay: Inactivation of the microbial host cells in fermentation broth (growth on agar plates)
Assay type: cell-based
Conditions: hexanoic acid at 0.09%, 0.28%, 0.46%, 0.65% (w/w) in fermentation broth; pH 4.5; 24 hrs constant stirring at room temperature; samples incubated for 4 days at 30 degrees Celsius
Description: The fatty acid is added to the fermentation broth at various concentrations (0.09% (w/w); 0.28% (w/w); 0.46% (w/w); 0.65% (w/w)).
pH is adjusted to 4.5 using an aqueous solution of acetic acid (CAS 64-19-7) and/or aqueous sodium hydroxide (CAS 1310-73-2).
The fermentation broth with the various concentrations of the fatty acid is left at pH 4.5 for 24 hrs with constant stirring at room temperature.
The fermentation broth is tested after 24 hrs and inactivation of the microbial host cells is successful if there is no growth on agar plates—samples are incubated for 4 days at 30 degrees Celsius.
Hexanoic acid (100% sol., CAS 142-62-1) was added to the fermentation broth at various concentrations (0.09% (w/w); 0.28% (w/w); 0.46% (w/w); 0.65% (w/w)).
pH was adjusted to 4.5 using an aqueous solution of acetic acid (CAS 64-19-7) and/or aqueous sodium hydroxide (CAS 1310-73-2).
The fermentation broth with the various concentrations of hexanoic acid was left at pH 4.5 for 24 hrs with constant stirring at room temperature.
After 24 hrs the Trichoderma reesei microbial host cells were inactivated (no growth on agar plates—samples were incubated for 4 days at 30 degrees Celsius).

CCCCCC(=O)O [Hexanoic acid]
inactivation of Trichoderma reesei microbial host cells (no growth on agar plates): inactivated
